According to ChEMBL document CHEMBL5465560, “Selectivity Literature for EUbOPEN Chemogenomic Library” (2024):
One block for each molecule: values may come before it.

Columns and labels:
[1] = biological target: Protein kinase C theta type (Homo sapiens, UniProt Q04759); experiment: Selectivity interaction (Kinase panel (Z-LYTE Assay)) EUB0001632a PRKCQ; conditions: at 10 µM
[2] = biological target: Tyrosine-protein kinase ABL1 (Homo sapiens, UniProt P00519); experiment: Selectivity interaction (Kinase panel (DSF assay)) EUB0001559a ABL1
[3] = biological target: Atypical kinase COQ8A, mitochondrial (Homo sapiens, UniProt Q8NI60); experiment: Selectivity interaction (KinomeScan (DiscoverX)) EUB0001049a ADCK3; conditions: at 1 µM
[4] = biological target: Receptor tyrosine-protein kinase erbB-2 (Homo sapiens, UniProt P04626); experiment: Selectivity interaction (Ambit KINOMEscan and KiNATiv profiling in Jurkat cells) EUB0000090b ERBB2; assay type: cell-based; conditions: at 1 µM
[5] = biological target: Tyrosine-protein kinase JAK1 (Homo sapiens, UniProt P23458); experiment: Selectivity interaction (NanoBRET assay (HEK293T cells)) EUB0001558a JAK1; assay type: cell-based, HEK-293T
[6] = biological target: T1, Gamma-aminobutyric acid receptor subunit alpha-1 (Homo sapiens) (UniProt P14867); experiment: Selectivity interaction (GPCR panel (PDSP screen)) EUB0001079a GABRA1; conditions: at 10 µM
T1 sequence (whole entry): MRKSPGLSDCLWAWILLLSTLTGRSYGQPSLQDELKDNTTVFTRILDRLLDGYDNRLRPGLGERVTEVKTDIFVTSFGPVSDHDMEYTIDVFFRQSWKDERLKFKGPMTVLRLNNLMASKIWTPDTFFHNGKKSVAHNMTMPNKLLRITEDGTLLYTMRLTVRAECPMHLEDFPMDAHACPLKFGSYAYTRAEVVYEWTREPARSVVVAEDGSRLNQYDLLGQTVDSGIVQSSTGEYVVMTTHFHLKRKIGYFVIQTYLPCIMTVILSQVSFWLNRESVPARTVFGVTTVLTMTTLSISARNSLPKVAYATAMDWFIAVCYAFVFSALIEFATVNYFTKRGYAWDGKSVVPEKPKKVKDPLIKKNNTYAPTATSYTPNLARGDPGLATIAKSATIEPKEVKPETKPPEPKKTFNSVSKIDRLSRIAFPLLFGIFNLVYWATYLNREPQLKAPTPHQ

[7] = biological target: T2, Mitogen-activated protein kinase kinase kinase 7 (Homo sapiens) (UniProt O43318); experiment: Selectivity interaction (KinomeScan (DiscoverX)) EUB0001079a MAP3K7; conditions: at 1 µM
T2 sequence (whole entry): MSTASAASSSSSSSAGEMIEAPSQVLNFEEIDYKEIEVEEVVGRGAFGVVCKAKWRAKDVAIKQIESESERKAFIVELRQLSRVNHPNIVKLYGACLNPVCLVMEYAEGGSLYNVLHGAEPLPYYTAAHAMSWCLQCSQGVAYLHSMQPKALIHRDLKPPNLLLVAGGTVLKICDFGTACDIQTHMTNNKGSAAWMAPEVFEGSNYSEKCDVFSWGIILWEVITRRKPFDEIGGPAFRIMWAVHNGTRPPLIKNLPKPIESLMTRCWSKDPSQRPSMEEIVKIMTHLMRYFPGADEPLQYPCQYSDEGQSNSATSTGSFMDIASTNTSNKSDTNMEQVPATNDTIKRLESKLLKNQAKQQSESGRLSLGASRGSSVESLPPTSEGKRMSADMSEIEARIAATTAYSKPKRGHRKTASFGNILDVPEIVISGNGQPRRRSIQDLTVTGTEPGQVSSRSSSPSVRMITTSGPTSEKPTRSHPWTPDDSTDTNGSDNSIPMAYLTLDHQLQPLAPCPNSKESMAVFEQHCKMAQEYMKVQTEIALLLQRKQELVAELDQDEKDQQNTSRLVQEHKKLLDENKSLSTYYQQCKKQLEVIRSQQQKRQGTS

[8] = biological target: T3, Serine/threonine-protein kinase Nek1 (Homo sapiens) (UniProt Q96PY6); experiment: Selectivity interaction (KinomeScan (DiscoverX)) EUB0001079a NEK1; conditions: at 1 µM
T3 sequence (whole entry): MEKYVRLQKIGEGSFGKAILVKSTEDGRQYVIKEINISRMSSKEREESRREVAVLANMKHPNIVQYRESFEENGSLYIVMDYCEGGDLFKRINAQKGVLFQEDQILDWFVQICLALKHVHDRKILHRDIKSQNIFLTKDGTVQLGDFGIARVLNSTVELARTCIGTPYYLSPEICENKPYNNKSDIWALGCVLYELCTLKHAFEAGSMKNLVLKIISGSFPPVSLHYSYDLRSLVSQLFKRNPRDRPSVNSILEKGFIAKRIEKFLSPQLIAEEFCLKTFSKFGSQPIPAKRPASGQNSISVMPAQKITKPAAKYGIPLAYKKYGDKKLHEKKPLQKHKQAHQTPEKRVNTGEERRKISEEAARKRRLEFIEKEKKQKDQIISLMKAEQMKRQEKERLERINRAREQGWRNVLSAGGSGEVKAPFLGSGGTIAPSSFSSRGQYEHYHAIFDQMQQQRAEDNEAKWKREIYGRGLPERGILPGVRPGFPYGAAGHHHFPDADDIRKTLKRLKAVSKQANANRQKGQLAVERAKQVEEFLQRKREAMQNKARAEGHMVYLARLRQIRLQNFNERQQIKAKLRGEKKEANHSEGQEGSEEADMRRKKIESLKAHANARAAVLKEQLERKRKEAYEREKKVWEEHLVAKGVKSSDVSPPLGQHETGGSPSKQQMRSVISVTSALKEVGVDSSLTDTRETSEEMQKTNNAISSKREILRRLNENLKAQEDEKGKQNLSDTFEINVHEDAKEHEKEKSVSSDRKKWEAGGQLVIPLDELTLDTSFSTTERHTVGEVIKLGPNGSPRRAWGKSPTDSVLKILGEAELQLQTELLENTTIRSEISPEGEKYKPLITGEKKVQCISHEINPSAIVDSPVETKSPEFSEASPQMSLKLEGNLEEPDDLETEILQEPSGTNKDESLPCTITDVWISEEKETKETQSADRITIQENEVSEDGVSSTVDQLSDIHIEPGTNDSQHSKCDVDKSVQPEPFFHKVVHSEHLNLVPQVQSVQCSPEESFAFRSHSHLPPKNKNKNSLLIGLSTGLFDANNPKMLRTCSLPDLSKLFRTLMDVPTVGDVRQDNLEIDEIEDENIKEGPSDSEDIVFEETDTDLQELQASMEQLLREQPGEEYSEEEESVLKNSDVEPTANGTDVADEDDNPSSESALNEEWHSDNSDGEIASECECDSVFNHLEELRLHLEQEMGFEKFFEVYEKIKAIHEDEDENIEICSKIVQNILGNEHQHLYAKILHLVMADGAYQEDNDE

[9] = biological target: Tyrosine-protein kinase Yes (Homo sapiens) (UniProt P07947); experiment: Selectivity interaction (KinomeScan (DiscoverX)) EUB0001079a YES1; conditions: at 1 µM
[10] = biological target: Tyrosine-protein kinase SYK (Homo sapiens, UniProt P43405); experiment: Selectivity interaction (KinomeScan (DiscoverX)) EUB0000092b SYK; conditions: at 10 µM

Chain of Tyrosine-protein kinase JAK1 (P23458 whole entry): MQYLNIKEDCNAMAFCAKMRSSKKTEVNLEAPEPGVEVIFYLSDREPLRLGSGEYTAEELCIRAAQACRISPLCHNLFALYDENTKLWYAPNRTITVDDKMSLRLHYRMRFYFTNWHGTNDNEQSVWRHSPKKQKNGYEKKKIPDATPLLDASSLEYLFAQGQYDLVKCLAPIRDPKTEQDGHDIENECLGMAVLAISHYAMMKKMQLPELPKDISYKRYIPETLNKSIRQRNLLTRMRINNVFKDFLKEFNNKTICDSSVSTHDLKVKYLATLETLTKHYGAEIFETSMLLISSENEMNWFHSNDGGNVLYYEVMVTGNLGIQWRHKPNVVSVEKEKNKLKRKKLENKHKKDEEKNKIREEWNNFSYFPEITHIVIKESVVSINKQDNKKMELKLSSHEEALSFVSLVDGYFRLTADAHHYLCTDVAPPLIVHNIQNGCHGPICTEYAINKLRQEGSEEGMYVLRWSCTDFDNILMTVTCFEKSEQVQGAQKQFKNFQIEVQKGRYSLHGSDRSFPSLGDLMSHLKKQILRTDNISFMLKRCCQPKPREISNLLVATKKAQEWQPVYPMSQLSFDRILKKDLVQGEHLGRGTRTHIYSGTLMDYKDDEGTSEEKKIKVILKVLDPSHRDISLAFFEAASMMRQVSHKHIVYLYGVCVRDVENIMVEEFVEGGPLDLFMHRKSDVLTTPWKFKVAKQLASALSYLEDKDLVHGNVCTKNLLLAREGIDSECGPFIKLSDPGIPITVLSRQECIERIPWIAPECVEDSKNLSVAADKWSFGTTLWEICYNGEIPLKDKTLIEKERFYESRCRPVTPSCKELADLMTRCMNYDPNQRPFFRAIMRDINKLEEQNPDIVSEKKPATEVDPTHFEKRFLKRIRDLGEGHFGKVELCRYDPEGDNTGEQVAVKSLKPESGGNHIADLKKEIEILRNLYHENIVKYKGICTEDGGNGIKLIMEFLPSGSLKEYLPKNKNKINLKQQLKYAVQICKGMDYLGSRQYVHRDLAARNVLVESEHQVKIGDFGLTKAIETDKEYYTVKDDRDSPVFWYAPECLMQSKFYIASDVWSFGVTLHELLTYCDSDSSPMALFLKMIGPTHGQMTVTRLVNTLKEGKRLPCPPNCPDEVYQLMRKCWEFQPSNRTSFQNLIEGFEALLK
Chain of Atypical kinase COQ8A, mitochondrial (Q8NI60 163-647 limits assumed): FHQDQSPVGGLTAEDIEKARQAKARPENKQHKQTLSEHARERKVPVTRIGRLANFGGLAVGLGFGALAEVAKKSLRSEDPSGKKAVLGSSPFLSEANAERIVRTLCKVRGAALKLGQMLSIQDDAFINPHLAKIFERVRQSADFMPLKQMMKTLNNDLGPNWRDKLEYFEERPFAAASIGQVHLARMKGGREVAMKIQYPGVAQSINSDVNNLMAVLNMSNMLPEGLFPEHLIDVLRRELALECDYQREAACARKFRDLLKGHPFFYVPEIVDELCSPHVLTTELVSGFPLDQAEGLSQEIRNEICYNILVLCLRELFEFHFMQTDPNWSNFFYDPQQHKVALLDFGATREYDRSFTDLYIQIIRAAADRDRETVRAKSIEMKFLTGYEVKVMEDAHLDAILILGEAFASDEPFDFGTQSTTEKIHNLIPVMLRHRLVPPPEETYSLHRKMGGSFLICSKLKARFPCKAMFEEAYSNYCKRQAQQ
Chain of Tyrosine-protein kinase Yes (Homo sapiens) (P07947 2-543 limits assumed): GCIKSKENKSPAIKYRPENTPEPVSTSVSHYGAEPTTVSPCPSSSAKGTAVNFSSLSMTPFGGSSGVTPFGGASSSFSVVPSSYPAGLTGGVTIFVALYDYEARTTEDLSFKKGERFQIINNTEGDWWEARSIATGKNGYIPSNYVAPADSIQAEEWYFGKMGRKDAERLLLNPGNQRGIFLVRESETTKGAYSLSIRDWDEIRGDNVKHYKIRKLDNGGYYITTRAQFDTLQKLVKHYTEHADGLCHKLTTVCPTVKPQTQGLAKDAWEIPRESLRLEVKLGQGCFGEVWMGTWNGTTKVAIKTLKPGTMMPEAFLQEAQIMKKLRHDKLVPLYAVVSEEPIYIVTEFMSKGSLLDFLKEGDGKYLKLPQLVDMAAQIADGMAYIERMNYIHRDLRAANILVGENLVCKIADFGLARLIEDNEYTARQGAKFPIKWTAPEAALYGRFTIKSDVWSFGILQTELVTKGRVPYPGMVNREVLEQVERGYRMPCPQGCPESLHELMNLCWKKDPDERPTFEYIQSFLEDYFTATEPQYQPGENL
Chain of Receptor tyrosine-protein kinase erbB-2 (P04626 whole entry): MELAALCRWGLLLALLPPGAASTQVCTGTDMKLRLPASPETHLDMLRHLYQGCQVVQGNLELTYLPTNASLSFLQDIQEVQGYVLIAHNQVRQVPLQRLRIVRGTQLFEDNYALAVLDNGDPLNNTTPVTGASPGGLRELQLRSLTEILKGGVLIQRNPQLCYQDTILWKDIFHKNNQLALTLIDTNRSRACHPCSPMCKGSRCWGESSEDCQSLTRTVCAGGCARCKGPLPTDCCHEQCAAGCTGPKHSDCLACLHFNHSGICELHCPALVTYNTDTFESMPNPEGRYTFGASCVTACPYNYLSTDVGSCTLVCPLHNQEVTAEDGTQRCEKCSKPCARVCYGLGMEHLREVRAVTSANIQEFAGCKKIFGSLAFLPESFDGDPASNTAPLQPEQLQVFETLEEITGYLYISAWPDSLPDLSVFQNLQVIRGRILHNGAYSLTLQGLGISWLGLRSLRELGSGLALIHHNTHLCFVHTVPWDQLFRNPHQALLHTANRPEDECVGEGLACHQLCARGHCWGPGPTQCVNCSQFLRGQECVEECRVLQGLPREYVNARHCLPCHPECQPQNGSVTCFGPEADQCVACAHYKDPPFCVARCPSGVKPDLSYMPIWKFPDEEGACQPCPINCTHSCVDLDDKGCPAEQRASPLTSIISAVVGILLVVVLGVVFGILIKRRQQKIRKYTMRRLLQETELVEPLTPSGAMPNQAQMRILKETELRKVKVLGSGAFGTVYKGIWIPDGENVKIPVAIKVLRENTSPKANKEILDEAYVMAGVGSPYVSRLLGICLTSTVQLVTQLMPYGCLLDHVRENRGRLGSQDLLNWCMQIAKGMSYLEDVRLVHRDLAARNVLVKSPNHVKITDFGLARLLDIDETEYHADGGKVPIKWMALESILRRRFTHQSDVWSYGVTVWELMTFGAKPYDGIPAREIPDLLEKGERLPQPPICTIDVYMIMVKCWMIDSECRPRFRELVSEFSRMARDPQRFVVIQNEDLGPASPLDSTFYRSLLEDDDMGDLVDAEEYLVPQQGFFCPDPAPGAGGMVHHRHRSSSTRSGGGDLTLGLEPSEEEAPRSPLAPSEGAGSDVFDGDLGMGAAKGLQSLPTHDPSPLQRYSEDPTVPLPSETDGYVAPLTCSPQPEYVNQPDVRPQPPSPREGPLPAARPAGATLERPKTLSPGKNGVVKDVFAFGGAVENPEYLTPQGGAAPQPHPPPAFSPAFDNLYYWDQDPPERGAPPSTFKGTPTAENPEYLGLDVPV
Chain of Protein kinase C theta type (Q04759 whole entry, looked up): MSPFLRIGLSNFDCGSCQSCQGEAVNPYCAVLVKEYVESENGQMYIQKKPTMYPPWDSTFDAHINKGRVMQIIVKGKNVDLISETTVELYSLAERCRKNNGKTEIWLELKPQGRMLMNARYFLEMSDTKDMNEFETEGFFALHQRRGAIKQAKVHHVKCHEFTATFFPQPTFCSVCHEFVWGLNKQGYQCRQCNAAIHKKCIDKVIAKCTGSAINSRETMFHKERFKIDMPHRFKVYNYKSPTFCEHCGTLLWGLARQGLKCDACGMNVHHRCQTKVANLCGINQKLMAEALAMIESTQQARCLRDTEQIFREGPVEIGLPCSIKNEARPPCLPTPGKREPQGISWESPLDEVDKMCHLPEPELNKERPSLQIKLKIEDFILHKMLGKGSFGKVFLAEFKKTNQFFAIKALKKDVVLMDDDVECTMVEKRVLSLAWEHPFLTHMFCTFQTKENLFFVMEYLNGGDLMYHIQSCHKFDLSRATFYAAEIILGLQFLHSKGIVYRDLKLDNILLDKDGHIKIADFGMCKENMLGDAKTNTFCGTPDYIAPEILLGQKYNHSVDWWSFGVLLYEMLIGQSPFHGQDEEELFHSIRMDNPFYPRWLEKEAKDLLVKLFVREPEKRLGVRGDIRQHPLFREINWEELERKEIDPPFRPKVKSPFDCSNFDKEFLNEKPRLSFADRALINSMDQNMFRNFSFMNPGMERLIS

- % of control [1]: 14.5%
Structure (SMILES): Cn1cc(-n2cnc3c(NCc4nc5cc(Cl)c(Cl)cc5[nH]4)nc(N4CCOCC4)nc32)cn1

- dTM [2]: 0.6 K
Structure (SMILES): CN(C(=O)c1cnn2cccnc12)c1cc2c(cc1N1CCOCC1)C(=O)N(C[C@@H](F)C(C)(C)O)C2

Structure (SMILES): COc1cc(Nc2nc(C)cc(-c3cnn4nc(OC)ccc34)n2)cc(C(F)(F)F)c1
- % of control [3]: 91%

Structure (SMILES): CN(C)C/C=C/C(=O)Nc1ccc(C(=O)N2CCCC(Nc3ncc(Cl)c(-c4c[nH]c5ccccc45)n3)C2)cc1 (stereo not given)
- % of control [4]: 96%

Structure (SMILES): CC(C)(O)[C@H](F)CN1Cc2cc(NC(=O)c3cnn4cccnc34)c(N3CCOCC3)cc2C1=O
- EC50 [5]: > 50 µM

Structure (SMILES): Nc1cnc(N2CCc3cc(S(=O)(=O)Nc4c(F)cc(Cl)cc4F)cc(N4CCCC4=O)c32)nc1 [TP-020n]
- % of inhibition [6]: 20.5%
- % of control [7]: 100%
- % of control [8]: 46%
- % of control [9]: 100%

Structure (SMILES): CCC(=O)N1CCN(c2ccc(-n3c(=O)ccc4cnc5ccc(-c6cnc7ccccc7c6)cc5c43)cc2C(F)(F)F)CC1
- % of control [10]: 78%
